Assay results: patent publication US20260226034A1 (The Rockefeller University, priority 2023, published 2026)

Biological target: NSP14 (Severe acute respiratory syndrome coronavirus 2, UniProt P0DTD1)
Assay: NSP14 MTase inhibition assay at 37° C. (MTase-Glo SAH detection)
Format: biochemical, SARS-CoV-2
Settings: 37° C., 0.3 nM NSP14, 2.5 μM SAM, 2.5 μM GpppA RNA; read-out: Nsp14 Mtase Inh. IC50

Compound	IC50 [nM]
Cc1c(S(=O)(=O)c2cc(F)c3[nH]ncc3c2)cc(C(=O)NCc2ncccc2F)n1C [B.58]	2.3
Cc1c(S(=O)(=O)c2cc(F)c3[nH]ncc3c2)cc(C(=O)NCc2cccc(CN3CCCC3)c2)n1C [B.59]	41
Cc1c(S(=O)(=O)c2cc(C(F)F)c3[nH]ncc3c2)cc(C(=O)NCc2cccc3cnn(C4CC4)c23)n1C [B.60]	5.3
Cc1c(S(=O)(=O)c2ccc3c(cnn3C)c2)cc(C(=O)NCc2c(F)ccc3cnn(C4CC4)c23)n1CCCC#N [B.61]	2.6
Cc1c(S(=O)(=O)c2ccc3c(cnn3C)c2)cc(C(=O)NCc2c(F)ccc3cnn(C4CC4)c23)n1CCCC(=O)O [B.62]	< 0.15
Cc1c(S(=O)(=O)c2cc(F)c3[nH]ncc3c2)cc(C(=O)NCc2c(F)ccc3cnn(C4CC4)c23)n1C [B.63]	< 0.15
Cc1c(S(=O)(=O)c2ccc3[nH]ncc3c2)cc(C(=O)NCc2cccc3nnn(C4CC4)c23)n1C [B.66]	< 0.15
Cc1c(S(=O)(=O)c2ccc3[nH]ncc3c2)cc(C(=O)NCc2ccccc2)n1C [B.67]	2.6
Cc1c(S(=O)(=O)c2ccc3[nH]ncc3c2)cc(C(=O)NCc2c(F)cc(CN(C)C)cc2F)n1C [B.68]	4.1
Cc1c(S(=O)(=O)c2ccc3[nH]ncc3c2)cc(C(=O)NCc2c(F)cc(F)c3cnn(C)c23)n1C [B.69]	< 0.15
Cc1c(S(=O)(=O)c2ccc3[nH]ncc3c2)cc(C(=O)NCc2ccc(N(C)C)nn2)n1C [B.73]	116
Cc1c(S(=O)(=O)c2ccc3[nH]ncc3c2)cc(C(=O)NCc2c(F)ccc3c2N(C)C(=O)C3(F)F)n1C [B.74]	0.5
Cc1c(S(=O)(=O)c2ccc3[nH]ncc3c2)cc(C(=O)NNc2c(F)cccc2F)n1C [B.75]	9.6
Cc1c(S(=O)(=O)c2ccc3[nH]ncc3c2)cc(C(=O)NCc2ccccc2F)n1C [B.76]	1.6
Cc1c(S(=O)(=O)c2ccc3[nH]ncc3c2)cc(C(=O)NCc2cccc(OCC(F)(F)F)c2)n1C [B.77]	2.9
Cc1c(S(=O)(=O)c2ccc3[nH]ncc3c2)cc(C(=O)NCc2c(F)cccc2OCCN(C)C)n1C [B.78]	2
Cc1c(S(=O)(=O)c2cc(Cl)c3[nH]ncc3c2)cc(C(=O)NCc2c(F)ccc3cnn(C4CC4)c23)n1C [B.79]	0.17
Cc1c(S(=O)(=O)c2ccc3[nH]nc(F)c3c2)cc(C(=O)NCc2cccc3c(F)nn(C4CC4)c23)n1C [B.80]	1.5
Cc1c(S(=O)(=O)c2ccc3[nH]ncc3c2)cc(C(=O)NCc2c(F)ccc3nnn(C4CC4)c23)n1C [B.81]	< 0.15
Cc1c(S(=O)(=O)c2ccc3[nH]nc(F)c3c2)cc(C(=O)NCc2c(F)ccc3nnn(C4CC4)c23)n1C [B.82]	< 0.15
Cc1c(S(=O)(=O)c2ccc3[nH]ncc3c2)cc(C(=O)NCc2ncccc2C(F)(F)F)n1C [B.83]	5.3
Cc1c(S(=O)(=O)c2ccc3[nH]ncc3c2)cc(C(=O)NCc2c(Cl)cccc2Cl)n1C [B.84]	0.18
Cc1c(S(=O)(=O)c2ccc3[nH]ncc3c2)cc(C(=O)NCc2c(F)cccc2Cl)n1C [B.85]	0.2
Cc1c(S(=O)(=O)c2ccc3[nH]ncc3c2)cc(C(=O)NCc2c(F)cc(F)cc2F)n1C [B.86]	0.41
Cc1c(S(=O)(=O)c2cc(F)c3[nH]ncc3c2)cc(C(=O)NCc2c(F)ccc3cnn(C4CC4)c23)n1CCO [B.89]	0.1

Compound	IC50 [nM]
O=C(NCc1c(F)ccc2ncn(C3CC3)c12)c1cc(S(=O)(=O)c2cc(F)c3[nH]ncc3c2)c2n1CCC2 [B.90]	0.21
O=C(NCc1c(F)ccc2ncn(C3CC3)c12)c1cc(S(=O)(=O)c2ccc3[nH]nc(F)c3c2)c2n1CCC2 [B.91]	0.28
COCc1cc(S(=O)(=O)c2cc(C(=O)NCc3cccc4cnn(C5CC5)c34)n(C)c2C)cc2cn[nH]c12 [B.93]	68
Cc1c(S(=O)(=O)c2cc(F)c3[nH]ncc3c2)cc(C(=O)NCc2c(F)ccc3nnn(C4CC4)c23)n1C [B.94]	< 0.15
Cc1c(S(=O)(=O)c2ccc3[nH]nc(F)c3c2)cc(C(=O)NCc2c[nH]c(=O)c3ccccc23)n1C [B.95]	2.2
Cc1c(S(=O)(=O)c2ccc3[nH]ncc3c2)cc(C(=O)NCc2cc(F)cc3cnn(C)c23)n1C [B.96]	1
Cc1c(S(=O)(=O)c2ccc3[nH]ncc3c2)cc(C(=O)NCc2cc(F)cc3cn(C)nc23)n1C [B.97]	11
Cc1c(S(=O)(=O)c2cc(C#N)c3[nH]ncc3c2)cc(C(=O)NCc2c(F)ccc3cnn(C4CC4)c23)n1C [B.98]	0.5
Cc1c(S(=O)(=O)c2cc(F)c3[nH]nc(F)c3c2)cc(C(=O)NCc2c(F)ccc3cnn(C4CC4)c23)n1C [B.99]	0.15
Cc1c(S(=O)(=O)c2ccc3[nH]ncc3c2)cc(C(=O)NCc2ccnn2C)n1C [B.100]	12
Cc1c(S(=O)(=O)c2ccc3[nH]ncc3c2)cc(C(=O)NCc2ccccc2C#N)n1C [B.101]	192
Cc1c(S(=O)(=O)c2cc(F)c3[nH]ncc3c2)cc(C(=O)NCc2c(F)ccc3ncn(C4CC4)c23)n1C [B.102]	< 0.15
Cc1c(S(=O)(=O)c2ccc3[nH]nc(F)c3c2)cc(C(=O)NCc2c(F)ccc3ncn(C4CC4)c23)n1C [B.103]	< 0.15
Cc1c(S(=O)(=O)c2ccc3[nH]ncc3c2)cc(C(=O)NCc2ccc(=O)[nH]c2)n1C [B.104]	27
Cc1c(S(=O)(=O)c2ccc3[nH]nc(F)c3c2)cc(C(=O)NCc2c(F)ccc3c2N(C)C(=O)C3(F)F)n1C [B.105]	0.15
Cc1c(S(=O)(=O)c2cc(C#N)c3[nH]ncc3c2)cc(C(=O)NCc2cccc3cnn(C4CC4)c23)n1C [B.106]	0.32
Cc1c(S(=O)(=O)c2ccc3[nH]ncc3c2)cc(C(=O)NCc2c(F)cncc2F)n1C [B.107]	0.12
Cc1c(S(=O)(=O)c2ccc3[nH]ncc3c2)cc(C(=O)NCc2c(F)cccc2OCCS(C)(=O)=O)n1C [B.108]	< 0.15
Cc1c(S(=O)(=O)c2cc(F)c3[nH]ncc3c2)cc(C(=O)NCc2c[nH]c(=O)c3ccccc23)n1C [B.109]	0.24
Cc1c(S(=O)(=O)c2ccc3c(c2)c(O)nn3C)cc(C(=O)NCc2c(F)ccc3cnn(C4CC4)c23)n1C [B.111]	142
COc1nccc(F)c1CNC(=O)c1cc(S(=O)(=O)c2ccc3[nH]ncc3c2)c(C)n1C [B.112]	< 0.15
Cc1c(S(=O)(=O)c2ccc3[nH]ncc3c2)cc(C(=O)NCc2c(F)cc[nH]c2=O)n1C [B.113]	0.34
Cc1c(S(=O)(=O)c2ccc3[nH]ncc3c2)cc(C(=O)NCc2c(F)cc(CCN(C)C)cc2F)n1C [B.114]	184
Cc1c(S(=O)(=O)c2ccc3[nH]ncc3c2)cc(C(=O)NCc2c[nH]c(=O)c3cnn(C)c23)n1C [B.115]	0.17
Cc1cc[nH]c(=O)c1CNC(=O)c1cc(S(=O)(=O)c2ccc3[nH]ncc3c2)c(C)n1C [B.116]	4.6

Compound	IC50 [nM]
Cc1c(S(=O)(=O)c2ccc3[nH]ncc3c2)cc(C(=O)NCc2nccc3ncn(C4CC4)c23)n1C [B.117]	0.18
Cc1c(S(=O)(=O)c2ccc3[nH]ncc3c2)cc(C(=O)NCc2nccc3cnn(C4CC4)c23)n1C [B.118]	0.48
Cc1c(S(=O)(=O)c2ccc3[nH]ncc3c2)cc(C(=O)NCc2c(F)ccc3c2N(C)C(=O)C3(C)C)n1C [B.119]	0.21
Cc1c(S(=O)(=O)c2ccc3[nH]ncc3c2)cc(C(=O)NC2Cc3ccccc32)n1C (stereo not drawn) [B.120]	1.2
Cc1c(S(=O)(=O)c2ccc3[nH]ncc3c2)cc(C(=O)NCc2n[nH]c(=O)c3ccccc23)n1C [B.121]	< 0.15
Cc1c(S(=O)(=O)c2ccc3[nH]nc(F)c3c2)cc(C(=O)NC(c2ccccc2)C(F)(F)F)n1C (stereo not drawn) [B.122]	70
Cc1c(S(=O)(=O)c2ccc3[nH]ncc3c2)cc(C(=O)NCc2c(F)ccc(OCc3ccc(C(=O)O)cc3)c2F)n1C [B.123]	< 0.15
Cc1[nH]c(=O)c2ccccc2c1CNC(=O)c1cc(S(=O)(=O)c2ccc3[nH]nc(F)c3c2)c(C)n1C [B.124]	0.36
Cc1c(S(=O)(=O)c2ccc3[nH]ncc3c2)cc(C(=O)NCc2c(F)ccc(OCCCCC(=O)O)c2F)n1C [B.125]	< 0.15
Cc1c(S(=O)(=O)c2ccc3[nH]nc(F)c3c2)cc(C(=O)NC(c2ccccc2)c2ccccc2)n1C [B.126]	108
Cc1c(S(=O)(=O)c2ccc3ccc(C#N)cc3c2)cc(C(=O)NCc2c(F)ccc3cnn(C)c23)n1C [B.128]	0.93
Cc1c(S(=O)(=O)c2ccc3[nH]ncc3c2)cc(C(=O)NCc2ncnc3ncn(C)c23)n1C [B.129]	< 0.15
Cc1c(S(=O)(=O)c2ccc3[nH]ncc3c2)cc(C(=O)NCc2c[nH]c(=O)c3cnccc23)n1C [B.130]	< 0.15
Cc1c(S(=O)(=O)c2ccc3[nH]ncc3c2)cc(C(=O)NCc2nccn2C)n1C [B.131]	79
Cc1c(S(=O)(=O)c2ccc3[nH]ncc3c2)cc(C(=O)NCc2c[nH]c3ncccc23)n1C [B.132]	0.6
Cc1c(S(=O)(=O)c2ccc3[nH]ncc3c2)cc(C(=O)NCc2ccc(=O)n(C)n2)n1C [B.133]	7.6
Cc1c(S(=O)(=O)c2cc(Cl)c3[nH]ncc3c2)cc(C(=O)NCc2ccnn2C)n1C [B.134]	0.18
Cc1c(S(=O)(=O)c2ccc3c(=O)[nH]ccc3c2)cc(C(=O)NCc2c(F)ccc3cnn(C4CC4)c23)n1C [B.136]	< 0.15
Cc1c(S(=O)(=O)c2cc(F)c3[nH]ncc3c2)cc(C(=O)NCc2ccnn2C)n1C [B.137]	10
Cc1c(S(=O)(=O)c2ccc3[nH]ncc3c2)cc(C(=O)NCc2cnc3ccccn23)n1C [B.138]	6.3
Cc1c(S(=O)(=O)c2ccc3[nH]ncc3c2)cc(C(=O)NCc2ccn3nccc3c2)n1C [B.141]	16
Cc1c(S(=O)(=O)c2ccc3[nH]ncc3c2)cc(C(=O)NCc2c(Cl)cnn2C)n1C [B.142]	1.4
Cc1c(S(=O)(=O)c2ccc3[nH]ncc3c2Cl)cc(C(=O)NCc2c(F)ccc3c2N(C)C(=O)C32CC2)n1C [B.143]	0.4
Cc1c(S(=O)(=O)c2cc(C(F)(F)F)c3[nH]ncc3c2)cc(C(=O)NCc2c(F)ccc3nnn(C4CC4)c23)n1C [B.144]	1
Cc1c(S(=O)(=O)c2ccc3[nH]ncc3c2)cc(C(=O)NCc2c(F)ccc3c2N(C)C(=O)C32CC2)n1C [B.145]	< 0.15
